Laboratory results taken from US4952580A, “Pesticidal polyhaloalkene derivatives” (priority 1988, dated 1990).
Where two headings read alike, the source gives them in different places.

What was measured:
[1] = test system: root-knot nematode (Meloidogyne incognita); experiment: Initial Root-Knot Nematicidal Activity; type: in vivo; details: 336 h, read-out: Percent Control; for pest or weed control at 0.078 ppm: Table 2, Application Rate 0.078 ppm; for pest or weed control at 0.156 ppm: Table 2, Application Rate 0.156 ppm
Method in brief: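 Compound incorporated into Meloidogyne incognita-infested soil at 10 ppm to 0.078 ppm, then planted with tomato or cucumber seedlings. Root galling scored two weeks after planting as a knot index and converted to percent control, given as averages.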

root-knot nematode [2] = experiment: Residual Root-Knot Nematicidal Activity; type: in vivo, Meloidogyne incognita; details: read-out: Percent Control
Method in brief: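 Soil received 5% dust formulation at 5 and 10 ppm test compound and was held in a greenhouse, then infested with root-knot nematode eggs and larvae at 1, 2 and 4 weeks post-treatment. Cucumber or tomato seedlings were planted and scored about two weeks after infestation for Knot Index and Percent Control.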

stunt nematode = experiment: Stunt Nematode Test; type: in vivo
lesion nematode = experiment: Lesion Nematode Test; type: in vivo; details: read-out: Percent Control
Method in brief: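 Run as the stunt nematode test but on pea seedlings; compounds applied as dust formulations (initial and residual activity) or acetone/water formulations (systemic activity), with untreated samples as reference. Percent control derived by formula.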

cyst nematode = experiment: Cyst Nematode Test; type: in vivo; details: read-out: Percent Control
Protocol: (§1) Compounds of this invention were tested as follows for nematicidal and anthelmintic activity as dust formulations (initial and residual activity) and as acetone/water formulations (systemic activity). The formulations are described above.
The procedures was substantially the same as described in the stunt nematode test except soybean seedlings were used. "Percent Control" (Table 6 appended) is as defined in the stunt nematode test results.

root-knot nematode [3] = experiment: Soil Mobility against root-knot nematode; type: in vivo, Meloidogyne incognita; details: 336 h
Method in brief: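 Soil mobility of the nematicidal test material was evaluated by placing treated, nematode-infested soil in 8 cm plastic pots stacked above two or more pots of untreated infested soil, each containing a 10 cm^3 sand layer and filter paper discs. Fifteen cm of water was dripped through, pots drained 16-18 hours, then were planted with cucumber or tomato seedlings and scored for Percent Control.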

Caenorhabditis elegans = experiment: C. Elegans Nematode Screening Test and Evaluation (in-vitro); details: Caenorhabditis elegans
Method in brief: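 Worms (10-15 per well) in buffer with E. coli food, ampicillin and mycostatin; compound added in DMSO, 2-3 replicates per rate. Incubated 5-6 days at 20° C. Population development scored against untreated wells, noting effects such as reduced egg hatch or molting disruption.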

root-knot nematode [4] = experiment: Systemic Activity (basipetal, foliar spray) against root-knot nematode; type: in vivo, Meloidogyne incognita; details: 336 h, read-out: Percent Control; for pest or weed control at 1250 ppm: Table 8, rate 1250 ppm; for pest or weed control at 2000 ppm: Table 8, rate 2000 ppm
Protocol: as §1
Compounds of the invention were tested for basipetal systemic activity against the root-knot nematode. In this test, tomato plants are grown in 10.2 cm diameter fiber pots containing steam-pasteurized soil mix (50%, soil, 50% sand) until 4-6 true leaves appear. Three of the pots are then placed on a turntable in a spray hood and the plants sprayed with 50 ml of water/acetone solution containing the test compound. The soil surface is covered during the spraying to prevent spraying of the soil. After treatment, the potted plants are placed in a lighted drying chamber. The plants are then grown in a growth chamber at 25° C. for three days and inoculated with a standard nematode culture by incorporating the inoculum into the top cm of soil in the pots. The plants are returned to the growth chamber for about two weeks at which time the pots are allowed to dry until the plants begin to wilt. The roots are shaken free of soil and the degree of galling (swelling) noted as compared to galling of untreated control plants. The results are expressed as Knot Index and Percent Control as defined in the initial root-knot nematode activity tests reported above in Table 2.

corn seedling = experiment: Phytotoxicity noted in Stunt Nematode Test; type: in vivo; design: key: *: Some phytotoxicity; details: Table 4a; rate 5 ppm
Text: The procedure was substantially the same as in the initial root-knot nematode tests described above except that rates of application of formulated compound were 2.5 and 5 ppm in soil containing a corn seedling, with subsequent inoculation of the soil with combined larvae and adult stunt nematodes. The samples were evaulated approximately four weeks after infestation. The results (Tables 4 and 4a appended) indicate good control at the test application rates as compared with untreated samples where no control was observed. "Percent control" means the difference between average population counts between untreated and treated samples, divided by average population count of untreated sample, multiplied by 100.

[5] = read-out: Percent Control, Table 7a, 5% dust, 5 ppm, MIDDLE container
[6] = Table 9 screen, 5 ppm, read-out: Percent Mortality
[7] = Table 2, Application Rate 0.625 ppm
[8] = Table 2, Application Rate 1.25 ppm
[9] = Table 2, Application Rate 2.5 ppm
[10] = 168 h, Table 3a, 5% dust, 5 ppm, inoculation 1 week post-treatment
[11] = 336 h, Table 3a, 5% dust, 5 ppm, inoculation 2 weeks post-treatment
[12] = 672 h, Table 4a; rate 5 ppm; read-out: Percent Control
[13] = Table 7a, 5% dust, 5 ppm, BOTTOM container, read-out: Percent Control
[14] = Table 7a, 5% dust, 5 ppm, MIDDLE container, read-out: Percent Control
[15] = Table 7a, 5% dust, 5 ppm, TOP container, read-out: Percent Control
[16] = Table 9 screen, 5 ppm, read-out: Percent Inhibition of Reproduction
[17] = Table 2, Application Rate 0.312 ppm
[18] = 672 h, Table 3a, 5% dust, 5 ppm, inoculation 4 weeks post-treatment

| Structure (SMILES) | pest or weed control at 5 ppm (root-knot nematode [2]; 672 h) [%] | mortality at 5 ppm (Caenorhabditis elegans; [6]) [%] | pest or weed control at 0.078 ppm [1] [%] | pest or weed control at 0.156 ppm [1] [%] | pest or weed control at 0.625 ppm [1, 7] [%] | pest or weed control at 1.25 ppm [1, 8] [%] | pest or weed control at 2.5 ppm [1, 9] [%] | pest or weed control at 5 ppm (root-knot nematode [2]; [10]) [%] | pest or weed control at 5 ppm (root-knot nematode [2]; [11]) [%] | pest or weed control at 5 ppm (stunt nematode; [12]) [%] | pest or weed control at 2.5 ppm (lesion nematode; Table 5, rate 2.5 ppm) [%] | pest or weed control at 5 ppm (cyst nematode; Table 6, rate 5 ppm) [%] | pest or weed control at 5 ppm (root-knot nematode [3]; [13]) [%] | pest or weed control at 5 ppm (root-knot nematode [3]; [14]) [%] | pest or weed control at 5 ppm (root-knot nematode [3]; [15]) [%] | pest or weed control at 2000 ppm (root-knot nematode [4]; foliar) [%] | inhibition at 5 ppm (Caenorhabditis elegans; [16]) [%] | pest or weed control at 0.312 ppm [1, 17] [%] | pest or weed control at 5 ppm (root-knot nematode [2]; [18]) [%] | other results |
| --- | --- | --- | --- | --- | --- | --- | --- | --- | --- | --- | --- | --- | --- | --- | --- | --- | --- | --- | --- | --- |
| FCCSc1nnc(SCCC(F)=C(F)F)s1 [Compound 27, 2-(2-fluoroethylthio)-5-(3,4,4-trifluoro-3-butenylthio)-1,3,4-thiadiazole] | 99 | 0 | – | – | – | – | – | – | – | – | – | – | – | – | – | – | – | – | – | pest or weed control at 0.312 ppm [1]: 31%; pest or weed control at 0.625 ppm [1]: 79%; pest or weed control at 1.25 ppm [1]: 99%; pest or weed control at 2.5 ppm [1]: 100%; pest or weed control at 5 ppm (root-knot nematode [2]; 168 h): 99%; pest or weed control at 5 ppm (root-knot nematode [2]; 336 h): 97%; pest or weed control at 5 ppm (stunt nematode; 672 h; Table 4a; rate 5 ppm; read-out: Percent Control): 62%; pest or weed control at 2.5 ppm (lesion nematode): 63%; pest or weed control at 5 ppm (cyst nematode): 57%; pest or weed control at 5 ppm (root-knot nematode [3]; read-out: Percent Control, Table 7a, 5% dust, 5 ppm, BOTTOM container): 100%; pest or weed control at 5 ppm (root-knot nematode [3]; [5]): 100%; pest or weed control at 5 ppm (root-knot nematode [3]; read-out: Percent Control, Table 7a, 5% dust, 5 ppm, TOP container): 99%; inhibition at 5 ppm (Caenorhabditis elegans; read-out: Percent Inhibition of Reproduction): 38% |
| C=CCSc1nnc(SCCC(F)=C(F)F)s1 [Compound 31, 2-(2-propenylthio)-5-(3,4,4-trifluoro-3-butenylthio)-1,3,4-thiadiazole] | 95 | 0 | 0 | 13 | 78 | 96 | 99 | 97 | 97 | 52 | 11 | 7 | 50 | 86 | 98 | 71 | 38 | – | – | pest or weed control at 1250 ppm (root-knot nematode [4]; foliar): 0% |
| O=[N+]([O-])c1ccc(CSc2nnc(SCCC(F)=C(F)F)s2)cc1 [Compound 35, 2-(4-nitrophenylmethylthio)-5-(3,4,4-trifluoro-3-butenylthio)-1,3,4-thiadiazole] | – | 100 | 0 | 6 | – | 98 | 100 | 99 | 96 | 77 | – | 0 | 0 | 50 | 99 | 0 | 100 | 67 | 84 | mortality at 5 ppm (Caenorhabditis elegans; Table 10 evaluation, 5 ppm, read-out: Percent Mortality): 100%; inhibition at 1.25 ppm (Caenorhabditis elegans; Table 10 evaluation, 1.25 ppm, read-out: Percent Inhibition of Reproduction): 100%; mortality at 1.25 ppm (Caenorhabditis elegans; Table 10 evaluation, 1.25 ppm, read-out: Percent Mortality): 100%; inhibition at 2.5 ppm (Caenorhabditis elegans; Table 10 evaluation, 2.5 ppm, read-out: Percent Inhibition of Reproduction): 100%; mortality at 2.5 ppm (Caenorhabditis elegans; Table 10 evaluation, 2.5 ppm, read-out: Percent Mortality): 100% |
| FC(F)=C(F)CCSc1nnc(SCc2cccs2)s1 [Compound 36, 2-(2-thienylmethylthio)-5-(3,4,4-trifluoro-3-butenylthio)-1,3,4-thiadiazole] | 95 | – | 0 | 25 | 96 | 99 | 100 | 98 | 99 | – | – | 37 | 0 | – | 97 | 97 | – | 69 | – | pest or weed control at 1.25 ppm (lesion nematode; Table 5, rate 1.25 ppm): 2%; pest or weed control at 0.625 ppm (lesion nematode; Table 5, rate .625 ppm): 0%; pest or weed control at 5 ppm (root-knot nematode [3]; [5]): 17%; pest or weed control at 1250 ppm (root-knot nematode [4]): 17% |
| FC(F)=C(F)CCSc1nnc(Cc2ccccc2F)o1 [Compound 44, 2-(2-fluorophenylmethyl)-5-(3,4,4-trifluoro-3-butenylthio)-1,3,4-oxadiazole] | – | 0 | – | – | 76 | 86 | 98 | 100 | 100 | 75 | 88 | 59 | 96 | 100 | 100 | – | 25 | 50 | 100 | – |
| FC(F)=C(F)CCSc1nnc(Cc2ccc(F)cc2)o1 [Compound 45, 2-(4-fluorophenylmethyl)-5-(3,4,4-trifluoro-3-butenylthio)-1,3,4-oxadiazole] | – | 0 | – | – | 99 | 99 | 99 | 99 | 100 | 80 | 41 | – | 83 | 97 | 98 | – | 25 | – | 98 | pest or weed control at 0.312 ppm [1]: 95%; Some phytotoxicity (corn seedling): * |
| FC(F)=C(F)CCSc1nnc(Cc2ccc(F)cc2F)o1 [Compound 46, 2-(2,4-difluorophenylmethyl)-5-(3,4,4-trifluoro-3-butenylthio)-1,3,4-oxadiazole] | – | – | – | – | 98 | 98 | 99 | 99 | 100 | 65 | 77 | – | 78 | 97 | 96 | – | – | 85 | 99 | Some phytotoxicity (corn seedling): * |
